# From patent US20220016200A1, “PHARMACEUTICAL COMPOSITION FOR THE TREATMENT OF CYSTIC FIBROSIS” (GALENUS G.H. AG, priority 2018, published 2022)
# Bridge positions count the residues as written; N and C are the ends. Square brackets hold non-standard residues; d marks the D form. Peptide text beside a SMILES is read from it. * marks the point of attachment. Heptanoyl(5-Me) = CCC(C)CCCC(=O)*; Dab = NCC[C@H](N)C(=O)O
# System: A. nosocomialis strain (1461911 IHMA)
# Assay: Pneumonic mouse model, colistin resistant strain
# Type: in vivo, Acinetobacter nosocomialis
# Details: BALB/c mice, 3 per group, one intramuscular dose 24 hours after inoculation, combination groups stated together for both strains (6 mice)
# Method: One colistin susceptible (MIC 1 mg/L) A. nosocomialis strain (1204194 IHMA) and one colistin resistant (MIC 4 mg/L) A. nosocomialis strain (1461911 IHMA) are used. […] Fresh brain heart infusion broth (Merck, Darmstadt, Germany) bacterial cultures, in an aerobic atmosphere in the logarithmic growth phase (4-5 hours) at 37° C., are adjusted to a concentration of 1.0×10^6 colony forming units (CFU)/mL, as verified by both spectrophotometry (OD600 0.01-0.02 nm) and colony counting.
# A pneumonic mouse model was used. 8- to 12-week-old, specific-pathogen free, male or female BALB/c mice, with 25-35 g in weight, are used for the study Animals have free access to food and water except during experimental procedures. All studies are performed in accordance with the ethical guidelines for the care and use of laboratory animals, and the protocol is approved by an independent ethical commission.
# For inoculation, fresh inocula are prepared for each experiment from frozen stocks of the two A. nosocomialis isolates (1204194 and 1461911 IHMA). Broth cultures of freshly plated A. nosocomialis bacteria are grown to logarithmic phase overnight to an absorbance of 0.3 at 630 nm and diluted to 10^7 CFU/ml in saline. Mice are anesthetized by intraperitoneal (i.p.) injection of 12.5 mg/kg (5 μl) xylazine and 80 mg/kg (25 μl) ketamine and then inoculated intranasally with 0.05 ml of this bacterial suspension. […]
smiles,measurement,value
"CCC(C)CCCC(=O)N[C@@H](CCN)C(=O)N[C@H](C(=O)N[C@@H](CCN)C(=O)N[C@H]1CCNC(=O)[C@H]([C@@H](C)O)NC(=O)[C@H](CCN)NC(=O)[C@H](CCN)NC(=O)[C@H](CC(C)C)NC(=O)[C@@H](CC(C)C)NC(=O)[C@H](CCN)NC1=O)[C@@H](C)O (stereo partly drawn) [CS, colistin sulphate] ({Heptanoyl(5-Me)}-[Dab]T[Dab][Dab][Dab][dL]L[Dab][Dab]T; lactam 4-C)",mice that survive until day 3,0/3
